Assay results: PubChem BioAssay AID330 (DTP/NCI, 2004)
“And” between values parts separate entries of the source, which are not always exact repeats. Equal entries are not always repeated. Toxic doses and inconclusive results are not listed. Rule for the calls: active = survival T/C of 150% or more; inactive = T/C below 125% in these data.

System: P388 leukemia ip, CD2F1 mice, survival T/C
Assay: NCI In Vivo Anticancer Drug Screen. Data for tumor model P388 Leukemia (intraperitoneal) in CD2F1 (CDF1) mice
Conditions: endpoint: median survival time, higher = longer survival
Procedure, shortened: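 Mice carrying the transplanted tumor received test compound or vehicle. Survival was recorded in each group, and the value is the treated-group measurement divided by that of the vehicle-treated control group.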

[1] = dose: 100.0 mg/kg/injection, schedule: Q01DX009 (ip), vehicle: saline
[2] = dose: 200.0 mg/kg/injection, schedule: Q01DX009 (ip), vehicle: saline
[3] = dose: 50.0 mg/kg/injection, schedule: Q01DX009 (ip), vehicle: saline with Tween-80
[4] = dose: 100.0 mg/kg/injection, schedule: Q01DX009 (ip), vehicle: saline with Tween-80
[5] = dose: 200.0 mg/kg/injection, schedule: Q01DX009 (ip), vehicle: saline with Tween-80
[6] = dose: 50.0 mg/kg/injection, schedule: Q01DX005 (ip), vehicle: Klucel (hydroxypropylcellulose) (HPC)
[7] = dose: 100.0 mg/kg/injection, schedule: Q01DX005 (ip), vehicle: Klucel (hydroxypropylcellulose) (HPC)
[8] = dose: 200.0 mg/kg/injection, schedule: Q01DX005 (ip), vehicle: Klucel (hydroxypropylcellulose) (HPC)
[9] = dose: 25.0 mg/kg/injection, schedule: Q01DX005 (ip), vehicle: Klucel (hydroxypropylcellulose) (HPC)
[10] = dose: 50.0 mg/kg/injection, schedule: Q01DX009 (ip), vehicle: saline
[11] = dose: 100.0 mg/kg/injection, schedule: Q01DX001 (ip), vehicle: Klucel (hydroxypropylcellulose) (HPC)
[12] = dose: 200.0 mg/kg/injection, schedule: Q01DX001 (ip), vehicle: Klucel (hydroxypropylcellulose) (HPC)

Measured: T/C

OCC1OC(OC2(CO)OC(CO)C(O)C2O)C(O)C(O)C1O (stereo unspecified)
inactive: dose: 4.0 mg/kg/injection, schedule: Q01DX005 (ip), vehicle: saline 98 % of control | dose: 8.0 mg/kg/injection, schedule: Q01DX005 (ip), vehicle: saline 96 % of control | dose: 32.0 mg/kg/injection, schedule: Q01DX005 (ip), vehicle: saline 96 % of control | dose: 64.0 mg/kg/injection, schedule: Q01DX005 (ip), vehicle: saline 97 % of control | [1] 97 % of control | dose: 128.0 mg/kg/injection, schedule: Q01DX005 (ip), vehicle: saline 99 % of control | [2] 97 % of control | dose: 256.0 mg/kg/injection, schedule: Q01DX005 (ip), vehicle: saline 98 % of control | dose: 400.0 mg/kg/injection, schedule: Q01DX009 (ip), vehicle: saline 98 % of control | dose: 512.0 mg/kg/injection, schedule: Q01DX005 (ip), vehicle: saline 100 % of control | dose: 1024.0 mg/kg/injection, schedule: Q01DX005 (ip), vehicle: saline 106 % of control | dose: 2048.0 mg/kg/injection, schedule: Q01DX005 (ip), vehicle: saline 108 % of control

C=CC1=C(C)C(/C=c2/[nH]/c(=C\c3[nH]c(/C=C4/NC(=O)C(C)=C4C=C)c(C)c3CCC(=O)O)c(CCC(=O)O)c2C)=NC1=O
inactive: [3] 95 % of control | [4] 91 % of control | [5] 88 % of control

Cc1nc2c(cnn2C)c(=O)n1Cc1ccccc1
inactive: [6] 104 % of control | [7] 97 % of control | [8] 103 % of control

Clc1cccc(Cl)c1C(Nc1cnccn1)Nc1cnccn1
inactive: [9] 101 % of control and 104 % of control | [6] 101 % of control (2×) and 116 % of control | [7] 106 % of control and 113 % of control

O=C(O)CS(=O)(=O)CCS(=O)(=O)CC(=O)O
inactive: [10] 107 % of control | [1] 105 % of control | [2] 88 % of control

COc1ccc(Cc2ccccc2CO)c2ccccc12
inactive: [11] 100 % of control | [12] 100 % of control | dose: 400.0 mg/kg/injection, schedule: Q01DX001 (ip), vehicle: Klucel (hydroxypropylcellulose) (HPC) 100 % of control

CC(Nc1nccs1)Nc1nccs1
inactive: dose: 6.25 mg/kg/injection, schedule: Q01DX009 (ip), vehicle: saline with Tween-80 102 % of control and 96 % of control | dose: 12.5 mg/kg/injection, schedule: Q01DX009 (ip), vehicle: saline with Tween-80 108 % of control and 98 % of control | dose: 25.0 mg/kg/injection, schedule: Q01DX009 (ip), vehicle: saline with Tween-80 102 % of control and 97 % of control | [3] 111 % of control | [4] 109 % of control

CC(C)(C)OC(=O)NCCCCC(NC(=O)OCc1ccccc1)C(=O)ON1C(=O)CCC1=O (stereo unspecified)
inactive: dose: 50.0 mg/kg/injection, schedule: Q01DX005 (ip), vehicle: saline with Tween-80 101 % of control | dose: 100.0 mg/kg/injection, schedule: Q01DX005 (ip), vehicle: saline with Tween-80 102 % of control | dose: 200.0 mg/kg/injection, schedule: Q01DX005 (ip), vehicle: saline with Tween-80 107 % of control

O=C(NCc1ccco1)Nc1c(Cl)cc(Cl)cc1Cl
inactive: dose: 60.0 mg/kg/injection, schedule: Q01DX005 (ip), vehicle: saline with Tween-80 103 % of control | dose: 120.0 mg/kg/injection, schedule: Q01DX005 (ip), vehicle: saline with Tween-80 100 % of control | dose: 240.0 mg/kg/injection, schedule: Q01DX005 (ip), vehicle: saline with Tween-80 100 % of control

Clc1ccc(CN2COc3c(cc(Cl)c4cccnc34)C2)cc1Cl
inactive: dose: 100.0 mg/kg/injection, schedule: Q04DX003 (ip), vehicle: Klucel (hydroxypropylcellulose) (HPC) 97 % of control | dose: 200.0 mg/kg/injection, schedule: Q04DX003 (ip), vehicle: Klucel (hydroxypropylcellulose) (HPC) 97 % of control | dose: 400.0 mg/kg/injection, schedule: Q04DX003 (ip), vehicle: Klucel (hydroxypropylcellulose) (HPC) 89 % of control

OCC(O)C(O)C(O)Cc1ccc(O)cc1O (stereo unspecified)
inactive: [10] 98 % of control | [1] 106 % of control | [2] 104 % of control

CSc1nc(C)c(Br)c(N2CC2)n1
inactive: dose: 3.12 mg/kg/injection, schedule: Q01DX005 (ip), vehicle: Klucel (hydroxypropylcellulose) (HPC) 89 % of control | dose: 6.25 mg/kg/injection, schedule: Q01DX005 (ip), vehicle: Klucel (hydroxypropylcellulose) (HPC) 110 % of control and 94 % of control | dose: 12.5 mg/kg/injection, schedule: Q01DX005 (ip), vehicle: Klucel (hydroxypropylcellulose) (HPC) 99 % of control and 110 % of control | [9] 120 % of control and 89 % of control and 97 % of control | [6] 101 % of control and 102 % of control | [7] 105 % of control

CCOC(=O)C(=O)c1ccc(N(C)C)cc1
inactive: dose: 100.0 mg/kg/injection, schedule: Q01DX009 (ip), vehicle: Klucel (hydroxypropylcellulose) (HPC) 107 % of control | dose: 200.0 mg/kg/injection, schedule: Q01DX009 (ip), vehicle: Klucel (hydroxypropylcellulose) (HPC) 100 % of control | dose: 400.0 mg/kg/injection, schedule: Q01DX009 (ip), vehicle: Klucel (hydroxypropylcellulose) (HPC) 97 % of control

COc1cc(/C=N/n2c(-c3ccccc3)nc3ccccc3c2=O)cc(Br)c1O
inactive: dose: 60.0 mg/kg/injection, schedule: Q01DX005 (ip), vehicle: Klucel (hydroxypropylcellulose) (HPC) 89 % of control | dose: 120.0 mg/kg/injection, schedule: Q01DX005 (ip), vehicle: Klucel (hydroxypropylcellulose) (HPC) 87 % of control | dose: 240.0 mg/kg/injection, schedule: Q01DX005 (ip), vehicle: Klucel (hydroxypropylcellulose) (HPC) 87 % of control

COc1ccc2nc3cc(Cl)ccc3c(NCCCC3CCCN4CCCCC34)c2c1 (stereo unspecified)
inactive: dose: 7.5 mg/kg/injection, schedule: Q01DX005 (ip), vehicle: saline with Tween-80 108 % of control | dose: 15.0 mg/kg/injection, schedule: Q01DX005 (ip), vehicle: saline with Tween-80 108 % of control | dose: 30.0 mg/kg/injection, schedule: Q01DX005 (ip), vehicle: saline with Tween-80 111 % of control

COC(=O)c1nnn(-c2ccc(Cl)cc2C)c1C(=O)c1ccc(OC)cc1
inactive: dose: 60.0 mg/kg/injection, schedule: Q01DX005 (ip), vehicle: Klucel + Tween-80 102 % of control | dose: 120.0 mg/kg/injection, schedule: Q01DX005 (ip), vehicle: Klucel + Tween-80 108 % of control | dose: 240.0 mg/kg/injection, schedule: Q01DX005 (ip), vehicle: Klucel + Tween-80 93 % of control

O=C1NN=COc2ccccc21
inactive: [3] 106 % of control and 108 % of control and 93 % of control | [4] 100 % of control and 102 % of control and 105 % of control | [5] 106 % of control and 115 % of control and 121 % of control | dose: 400.0 mg/kg/injection, schedule: Q01DX009 (ip), vehicle: saline with Tween-80 110 % of control and 119 % of control

COC(=O)C(Cc1c[nH]c2ccccc12)NC(=O)c1ccccc1NC(=O)OCc1ccccc1 (stereo unspecified)
inactive: dose: 17.5 mg/kg/injection, schedule: Q01DX005 (ip), vehicle: Klucel (hydroxypropylcellulose) (HPC) 103 % of control | dose: 35.0 mg/kg/injection, schedule: Q01DX005 (ip), vehicle: Klucel (hydroxypropylcellulose) (HPC) 104 % of control | dose: 70.0 mg/kg/injection, schedule: Q01DX005 (ip), vehicle: Klucel (hydroxypropylcellulose) (HPC) 97 % of control

Cn1c(Cl)c(/C=N\Nc2ccccc2[N+](=O)[O-])c2ccccc21
inactive: dose: 25.0 mg/kg/injection, schedule: Q01DX001 (ip), vehicle: Klucel (hydroxypropylcellulose) (HPC) 90 % of control | dose: 50.0 mg/kg/injection, schedule: Q01DX001 (ip), vehicle: Klucel (hydroxypropylcellulose) (HPC) 87 % of control and 89 % of control | [11] 86 % of control and 90 % of control | [12] 87 % of control and 88 % of control

NC(=S)N/N=C/Cn1ccc(=O)[nH]c1=O
inactive: [6] 100 % of control | [7] 98 % of control | [8] 99 % of control
